Consider 15 compounds from patent publication US9765039B2, “Biaryl derivatives as bromodomain inhibitors” (Zenith Epigenetics Ltd., priority 2012, dated 2017).

Where a name gives a salt, the structure may show the parent alone.

One data set addresses T1, Brd4 bromodomain 1 (Homo sapiens, UniProt O60885).
T1 construct: made in house; host or cells: E. coli BL21(DE3)
Briefly: Inhibition of tetra-acetylated histone H4 binding to BET bromodomains (TR-FRET). Further details: key: Active: Compounds with an IC50 value less than 30 μM were deemed to be active.; Not Active: Compounds with an IC50 value less than 30 μM were deemed to be active. The conditions noted are these: first bromodomain of Brd4, tetra-acetylated histone H4 peptide. The method, then:
Proteins were cloned and overexpressed with a N-terminal 6×His tag, then purified by nickel affinity followed by size exclusion chromatography. Briefly, E. coli BL21(DE3) cells were transformed with a recombinant expression vector encoding N-terminally Nickel affinity tagged bromodomains from Brd2, Brd3, Brd4. Cell cultures were incubated at 37° C. with shaking to the appropriate density and induced overnight with IPTG. The supernatant of lysed cells was loaded onto Ni-IDA column for purification. Eluted protein was pooled, concentrated and further purified by size exclusion chromatography. Fractions representing monomeric protein were pooled, concentrated, aliquoted, and frozen at −80° C. for use in subsequent experiments.
Binding of tetra-acetylated histone H4 and BET bromodomains was confirmed by a Time Resolved Fluorescence Resonance Energy Transfer (TR-FRET) method. N-terminally His-tagged bromodomains (200 nM) and biotinylated tetra-acetylated histone H4 peptide (25-50 nM, Millipore) were incubated in the presence of Europium Cryptate-labeled streptavidin (Cisbio Cat. #610SAKLB) and XL665-labeled monoclonal anti-His antibody (Cisbio Cat. #61HISXLB) in a white 96 well microtiter plate (Greiner). For inhibition assays, serially diluted test compound was added to these reactions in a 0.2% final concentration of DMSO. Final buffer concentrations were 30 mM HEPES pH 7.4, 30 mM NaCl, 0.3 mM CHAPS, 20 mM phosphate pH 7.0, 320 mM KF, 0.08% BSA). After 2 hours incubation at room temperature, the fluorescence by FRET was measured at 665 and 620 nm by a SynergyH4 plate reader (Biotek). Illustrative results with the first bromodomain of Brd4 are shown below (Table 1). The binding inhibitory activity was shown by a decrease in 665 nm fluorescence relative to 620 nm. IC50 values were determined from a dose response curve.
(TR-FRET usually uses a lanthanide donor and a delayed reading to cut background.)

For the next data set, the system named is hIL-6 mRNA. As to the kind of experiment: Inhibition of hIL-6 mRNA transcription in LPS-stimulated U937 macrophages. The following applies: U937 differentiated into macrophages, 1 h pretreatment, lipopolysaccharide 3 h. It is filed as cell-based, human. Further details: key: Active: Compounds with an IC50 value less than 30 μM are deemed to be active. The method, then:
In this example, hIL-6 mRNA in tissue culture cells was quantitated to measure the transcriptional inhibition of hIL-6 when treated with a compound of the present disclosure.
A human leukemic monocyte lymphoma cell line (U937) was plated (3.2×10^4 cells per well) in a 96-well plate in 100 μL RPMI-1640 containing 10% FBS and penicillin/streptomycin, and differentiated into macrophages for 3 days in 60 ng/mL PMA ([…]) at 37° C. in 5% CO2 prior to the addition of the compound of interest. The cells were pretreated for 1 h with the test compound prior to stimulation with […] lipopolysaccharide from Escherichia coli. The cells were incubated at 37° C. for 3 h before the cells were harvested. At time of harvest, the spent media was removed from the cells and the cells were rinsed in 200 μL PBS. Cell lysis solution (70 μL) was added the cells in each well and incubated for 5-10 min at room temperature, to allow for complete cell lysis and detachment. mRNA was then prepared using the “mRNA Catcher PLUS plate” (Invitrogen), according to the protocol supplied. After the last wash, as much wash buffer as possible was aspirated without allowing the wells to dry. Elution buffer (E3, 70 μL) was then added to each well. mRNA was then eluted by incubating the mRNA Catcher PLUS plate with Elution Buffer for 5 min at 68° C. and then immediately placing the plate on ice.
The eluted mRNA isolated was then used in a one-step quantitative real-time PCR reaction, using components of the Ultra Sense Kit together with Applied Biosystems primer-probe mixes. Real-time PCR data was analyzed, normalizing the Ct values for hIL-6 to an internal control, prior to determining the fold induction of each unknown sample, relative to the control.

The next data set relates to c-myc. As to the kind of experiment: Inhibition of c-myc expression in cancer cell lines (mRNA, real-time PCR). It is filed as cell-based. Further details: key: Active: Compounds with an IC50 value less than 30 μM were deemed to be active. The conditions noted are these: Human AML MV4-11 cells, 3 hours. How it is done: MV4-11 cells (2.5×10^4 cells) were plated in 96 well U-bottom plates with test compound or DMSO (0.1%), and incubated for 3 hours at 37° C. Cells were then harvested by centrifugation, lysed, and mRNA was isolated using the mRNA catcher plus kit (Invitrogen). Reverse transcription of the mRNA and duplex amplification of the c-myc and cyclophilin cDNAs was performed using the RNA Ultrasense kit (Invitrogen) and a ViiA7 real-time PCR machine (Applied Biosystems). IC50 values were determined from a dose response curve.
On the technique in general: Real-time PCR tracks product formation cycle by cycle.

The subject of the next data set is Human AML MV-4-11 cells. As to the kind of experiment: Inhibition of cell proliferation in cancer cell lines (CellTiter Aqueous One). Further details: key: Active: Compounds with an IC50 value less than 30 μM were deemed to be active.; Not Active: Compounds with an IC50 value less than 30 μM were deemed to be active. The following applies: 72 hours. The class given is cell-based. How it is done:
MV4-11 cells: 96-well plates were seeded with 5×10^4 cells per well of exponentially growing human AML MV-4-11 (CRL-9591) cells and immediately treated with two-fold dilutions of test compounds, ranging from 30 μM to 0.2 μM. Triplicate wells were used for each concentration, as well as a media only and three DMSO control wells. The cells and compounds were incubated at 37° C., 5% CO2 for 72 hours before adding 20 μL of the CellTiter Aqueous One Solution (Promega) to each well and incubating at 37° C., 5% CO2 for an additional 3-4 hours. The absorbance was taken at 490 nm in a spectrophotometer and the percentage of proliferation relative to DMSO-treated cells was calculated after correction from the blank well. IC50 were calculated using the GraphPad Prism software.

As to `COc1cc(OC)c2c(=O)[nH]c(-c3cccc(-c4ccc(S(C)(=O)=O)cc4)n3)cc2c1` [Example 9, 6,8-Dimethoxy-3-(6-(4-(methylsulfonyl)phenyl)pyridin-2-yl)isoquinolin-1(2H)-one], the “FRET activity (IC50 < 30 μM)” value on Brd4 bromodomain 1 is recorded as “Not Active”. In addition, the “IL-6 activity (IC50 < 30 μM)” value in the data set on hIL-6 mRNA is “Not Active”.
On to `COc1cc(OC)c2c(=O)[nH]c(-c3ccc(OCCO)c(-c4ccc(C(C)=O)cc4)n3)nc2c1` [Example 28, 2-(6-(4-Acetylphenyl)-5-(2-hydroxyethoxy)pyridin-2-yl)-5,7-dimethoxyquinazolin-4(3H)-one], for which, on Brd4 bromodomain 1, the “FRET activity (IC50 < 30 μM)” value is given as “Active”. For the same compound, the “IL-6 activity (IC50 < 30 μM)” value with hIL-6 mRNA was “Active”.
In general, melting point refers to the temperature of the solid-liquid transition. `CCS(=O)(=O)c1ccc(-c2nc(-c3nc4cc(OC)cc(OC)c4c(=O)[nH]3)ccc2OCCN2CCCC2)cc1` (as salt: hydrochloride) [Example 42, 2-(6-(4-(Ethylsulfonyl)phenyl)-5-(2-(pyrrolidin-1-yl)ethoxy)pyridin-2-yl)-5,7-dimethoxyquinazolin-4(3H)-one] yielded a melting point of 235 to 236 °C.
For `COc1cc(OC)c2c(=O)[nH]c(-c3ccc(OCCN(C)C)c(-c4ccc([S+](C)[O-])cc4)c3)nc2c1` (stereo not shown) [Example 11, 2-(6-(2-(Dimethylamino)ethoxy)-4′-(methylsulfinyl)biphenyl-3-yl)-5,7-dimethoxyquinazolin-4(3H)-one], the “FRET activity (IC50 < 30 μM)” value at Brd4 bromodomain 1 is on record as “Active”. Moreover, in the data set with c-myc, the “c-myc activity (IC50 < 30 μM)” value is “Active”. Further, in the data set on Human AML MV-4-11 cells, the “cell proliferation activity (IC50 < 30 μM)” value (“cell proliferation activity” below) is recorded as “Active”. The “IL-6 activity (IC50 < 30 μM)” value in the data set with hIL-6 mRNA is “Active”.
In the case of `COc1cc(OC)c2c(=O)[nH]c(-c3cccc(-c4ccc([S+](C)[O-])cc4)n3)cc2c1` (stereo not shown) [Example 10, 6,8-dimethoxy-3-(6-(4-(methylsulfinyl)phenyl)pyridin-2-yl)isoquinolin-1(2H)-one], the “FRET activity (IC50 < 30 μM)” value at Brd4 bromodomain 1 was “Not Active”. The “IL-6 activity (IC50 < 30 μM)” value in the data set on hIL-6 mRNA is “Active”.
Turning to `COc1cc(F)cc2nc(-c3ccc(OC4CNC4)c(-c4ccc([S+](C)[O-])cc4)c3)[nH]c(=O)c12` (stereo not shown) [Example 14, 2-(6-(Azetidin-3-yloxy)-4′-(methylsulfinyl)-[1,1′-biphenyl]-3-yl)-7-fluoro-5-methoxyquinazolin-4(3H)-one], the “FRET activity (IC50 < 30 μM)” value on Brd4 bromodomain 1 is “Active”. Further, the “c-myc activity (IC50 < 30 μM)” value in the data set on c-myc is recorded as “Not Active”. In addition, the “cell proliferation activity” value in the data set with Human AML MV-4-11 cells is “Not Active”. In addition, in the data set on hIL-6 mRNA, the “IL-6 activity (IC50 < 30 μM)” value is given as “Not Active”.
Take `COc1cc(OC)c2c(=O)[nH]c(-c3ccc(OCCO)c(-c4ccc([S+](C)[O-])cc4)c3)nc2c1` (stereo not shown) [Example 16, 2-(6-(2-Hydroxyethoxy)-4′-(methylsulfinyl)biphenyl-3-yl)-5,7-dimethoxyquinazolin-4(3H)-one]: the “FRET activity (IC50 < 30 μM)” value at Brd4 bromodomain 1 was “Active”. For the same compound, the “c-myc activity (IC50 < 30 μM)” value in the data set on c-myc is reported as “Not Active”. In addition, the “cell proliferation activity” value in the data set with Human AML MV-4-11 cells is “Not Active”. Moreover, the “IL-6 activity (IC50 < 30 μM)” value in the data set on hIL-6 mRNA was “Active”.
For the compound `COc1cc(OC)c2c(=O)[nH]c(-c3ccc(OC4CNC4)c(-c4ccc([S+](C)[O-])cc4)c3)nc2c1` (stereo not shown) [Example 12, 2-(6-(Azetidin-3-yloxy)-4′-(methylsulfinyl)biphenyl-3-yl)-5,7-dimethoxyquinazolin-4(3H)-one], in the data set with c-myc, the “c-myc activity (IC50 < 30 μM)” value is “Not Active”. Besides, the “cell proliferation activity” value in the data set on Human AML MV-4-11 cells is listed as “Not Active”. In addition, the “IL-6 activity (IC50 < 30 μM)” value with hIL-6 mRNA is recorded as “Not Active”.
As to `COc1cc(OC)c2c(=O)[nH]c(-c3ccc(OC4CN(C)C4)c(-c4ccc([S+](C)[O-])cc4)c3)nc2c1` (stereo not shown) [Example 13, 5,7-Dimethoxy-2-(6-(1-methylazetidin-3-yloxy)-4′-(methylsulfinyl)biphenyl-3-yl)quinazolin-4(3H)-one], the “FRET activity (IC50 < 30 μM)” value at Brd4 bromodomain 1 is “Active”. The “c-myc activity (IC50 < 30 μM)” value in the data set with c-myc is on record as “Active”. Also, the “cell proliferation activity” value in the data set on Human AML MV-4-11 cells is “Active”. In addition, in the data set with hIL-6 mRNA, the “IL-6 activity (IC50 < 30 μM)” value is on record as “Active”.
Consider `CCS(=O)(=O)c1ccc(-c2nc(-c3nc4cc(OC)cc(OC)c4c(=O)[nH]3)ccc2OCCN2CCOCC2)cc1` (as salt: hydrochloride) [Example 43, 2-(6-(4-(Ethylsulfonyl)phenyl)-5-(2-morpholinoethoxy)pyridin-2-yl)-5,7-dimethoxyquinazolin-4(3H)-one], for which the melting point was 245 °C (dec.).
With `COc1cc(OC)c2c(=O)[nH]c(-c3ccc(OCCO)c(-c4cccc(S(C)(=O)=O)c4)n3)nc2c1` [Example 36, 2-(5-(2-Hydroxyethoxy)-6-(3-(methylsulfonyl)phenyl)pyridin-2-yl)-5,7-dimethoxyquinazolin-4(3H)-one methanesulfonate], on Brd4 bromodomain 1, the “FRET activity (IC50 < 30 μM)” value is reported as “Not Active”. For the same compound, the “c-myc activity (IC50 < 30 μM)” value in the data set on c-myc is “Not Active”. The “cell proliferation activity” value in the data set on Human AML MV-4-11 cells was “Not Active”. Besides, the “IL-6 activity (IC50 < 30 μM)” value in the data set with hIL-6 mRNA is listed as “Not Active”.
Regarding `CC(C)NCCOc1ccc(-c2nc3ccccc3c(=O)[nH]2)nc1-c1ccc([S+](C)[O-])cc1` (stereo not shown) [Example 65, 2-(5-(2-(Isopropylamino)ethoxy)-6-(4-(methylsulfinyl)phenyl)pyridin-2-yl)quinazolin-4(3H)-one], the “FRET activity (IC50 < 30 μM)” value at Brd4 bromodomain 1 is on record as “Active”. The “IL-6 activity (IC50 < 30 μM)” value with hIL-6 mRNA is reported as “Active”.
Turning to `COc1cc(OC)c2c(=O)[nH]c(-c3cccc(-c4ccc(C(=O)N(C)C)cc4)n3)cc2c1` [Example 8, 4-(6-(6,8-Dimethoxy-1-oxo-1,2-dihydroisoquinolin-3-yl)pyridin-2-yl)-N,N-dimethylbenzamide], the “FRET activity (IC50 < 30 μM)” value on Brd4 bromodomain 1 is recorded as “Not Active”. In addition, the “c-myc activity (IC50 < 30 μM)” value in the data set on c-myc was “Not Active”. In addition, the “cell proliferation activity” value in the data set with Human AML MV-4-11 cells was “Active”. For the same compound, the “IL-6 activity (IC50 < 30 μM)” value in the data set with hIL-6 mRNA is “Active”.
Consider `CN1CC[C@H](Oc2cc(F)cc3nc(-c4cccc(-c5ccc(S(C)(=O)=O)cc5)n4)[nH]c(=O)c23)C1` [Example 7, (S)-7-Fluoro-5-((1-methylpyrrolidin-3-yl)oxy)-2-(6-(4-(methylsulfonyl)phenyl)pyridin-2-yl)quinazolin-4(3H)-one], for which the “FRET activity (IC50 < 30 μM)” value at Brd4 bromodomain 1 is “Not Active”. Moreover, the “IL-6 activity (IC50 < 30 μM)” value in the data set with hIL-6 mRNA is “Not Active”.
Turning to `COc1ccc2c(=O)[nH]c(-c3ccc(OCCNC(C)C)c(-c4ccc([S+](C)[O-])cc4)n3)nc2c1` (stereo not shown) [Example 66, 2-(5-(2-(Isopropylamino)ethoxy)-6-(4-(methylsulfinyl)phenyl)pyridin-2-yl)-7-methoxyquinazolin-4(3H)-one], the “FRET activity (IC50 < 30 μM)” value at Brd4 bromodomain 1 is “Active”.
